Experimental data taken from patent publication US7750046B2, “Treatment of symptoms associated with irritable bowel syndrome” (The Board of Trustees of the Leland Stanford Jr. University, priority 2001, dated 2010).
“Also recorded” adds a separate entry of the source.

Legend:
Format in all cases: in vivo, human
[1] = system: subjects who met the Rome Criteria for IBS; test: Bloating score (20-point scale, Bowel Symptom Questionnaire) in IBS study; details: for Regression analysis: dependence of bloating score on drug dosage: larger doses
Text: (§1) This is a longitudinal single blinded, randomized placebo controlled study in which patients act as their own controls. Subjects were volunteers who met the Rome Criteria for IBS and without other active bowel disease (i.e. GERD, colon cancer). Both adult men and women participated, ranging in age from 23 to 75 years old, with greater number of women by a ratio of 2.5:1. Subjects responded to a Bowel Symptom Questionnaire (B. Naliboff, UCLA) as well as a Brief Mood Survey (D. Burns, Stanford). […] In addition, data was collected during a washout period of one week without any study drug.
(§2) A titration period of three to four weeks is being used to stabilize each patient on an efficacious dose of medication. […] During each week of the titration period, the cocktail was modified to allow a gradual increase or decrease in dose. Results were collected weekly by questionnaires.
(§3) Benefit in treating chronic IBS using nerve-acting agents was quantified by a decrease in mean values of abdominal pain with a 20-point Visual Analogue scale and a decrease in bowel symptoms (bloating, etc.) using a 20-point scale. Mood was also followed by a Brief Mood Survey, which rates Depression, Anxiety, Panic, Anger and Suicidal Urge (88 points maximum total).

[2] = system: subjects who met the Rome Criteria for IBS; test: Brief Mood Survey in IBS study; details: for Regression analysis: dependence of mood score on drug dosage: larger doses
Text: as §1, §3

[3] = system: subjects who met the Rome Criteria for IBS; test: VAS abdominal pain score (20-point Visual Analogue scale) in IBS study; details: for Regression analysis: dependence of VAS score on drug dosage: larger doses; for p-value of drop in mean VAS pain scores: oral
Text: as §1, §2, §3

[4] = system: subjects who met the Rome Criteria for IBS; test: IBS study, symptom scores overall (VAS pain, bloating, mood); details: for Drug effect versus placebo effect, overall / Reduction of symptoms overall (H0 no reduction vs H1 some reduction): result in words
Text: as §1, §2, §3

[5] = system: subjects who met the Rome Criteria for IBS; test: Side effects reported in IBS study; details: 25 mg qhs; resolved after discontinuation
Text: This is a longitudinal single blinded, randomized placebo controlled study in which patients act as their own controls. Subjects were volunteers who met the Rome Criteria for IBS and without other active bowel disease (i.e. GERD, colon cancer). Both adult men and women participated, ranging in age from 23 to 75 years old, with greater number of women by a ratio of 2.5:1. Subjects responded to a Bowel Symptom Questionnaire (B. Naliboff, UCLA) as well as a Brief Mood Survey (D. Burns, Stanford). Baseline questionnaire results were taken just prior to any drug treatment as well as shortly after. In addition, data was collected during a washout period of one week without any study drug. Drugs studied included intravenous lidocaine and a trial of the oral mexiletine, topiramate, gabapentin or placebo.
as §2

[6] = intravenous, 22 subjects, 20 point scale

| SMILES | Regression analysis: dependence of bloating score on drug dosage [1] | Regression analysis: dependence of mood score on drug dosage [2] | Regression analysis: dependence of VAS score on drug dosage [3] | p-value of drop in mean VAS pain scores ([3]; 300 mg) | p-value of drop in mean VAS pain scores ([3]; 600 mg) | Drug effect versus placebo effect, overall [4] | Reduction of symptoms overall (H0 no reduction vs H1 some reduction) [4] | Bloating, mean reduction [1, 6] | Reduction of bloating (H0 no reduction vs H1 some reduction) ([1]; result in words) | Effect on mood (H0 no reduction vs H1 some reduction) ([2]; result in words) | VAS Pain scores, mean reduction [3, 6] | Reduction of VAS (H0 no reduction vs H1 some reduction) ([3]; result in words) | Relief of symptoms of abdominal pain, bloating and distension in IBS ([4]; intravenous) | Reduction of symptoms overall (H0 no reduction vs H1 some reduction) ([4]; listed as Lidocaine) | Results in decreasing bloating ([1]; all dosages, 300 mg, 450 mg & 900 mg) | Bloating: drug effect versus placebo effect ([1]; result in words) | VAS: drug effect versus placebo effect ([3]; result in words) | Effect on decreasing bloating ([1]; 60 mg) | Side effects reported: fatigue, number of subjects [5] | Regression analysis: dependence of any score on drug dosage ([4]; larger doses) |
| --- | --- | --- | --- | --- | --- | --- | --- | --- | --- | --- | --- | --- | --- | --- | --- | --- | --- | --- | --- | --- |
| NCC1(CC(=O)O)CCCCC1 [gabapentin] | some effect | not very important for mood | some effect | 0.06 | 0.04 | different from placebo at doses 600 mg and higher | become more pronounced as the dosage is increased | – | – | – | – | – | – | – | – | – | – | – | – | – |
| CCN(CC)CC(=O)Nc1c(C)cccc1C [lidocaine] | – | – | – | – | – | much stronger effect than placebo | All patients had a significant drop in their scores | 6.8 | highly significant | highly significant | 4.80 | highly significant | very effective | most influential drug of all | – | – | – | – | – | – |
| Cc1cccc(C)c1OCC(C)N (centres unmarked) [mexiletine] | some effect | not very important for mood | some effect | – | – | – | significant at all dosages | – | – | – | – | – | – | – | significant results in decreasing bloating | different from placebo at all levels | different from placebo at all levels | – | – | – |
| CC1(C)O[C@@H]2[C@@H](CO[C@@]3(COS(N)(=O)=O)OC(C)(C)O[C@@H]23)O1 [topiramate] | – | – | – | – | – | – | least effect of all drugs; also recorded: barely become significant at doses of 50 mg and higher | – | – | – | – | – | – | – | – | different from placebo for VAS and bloating at doses 50 mg and higher | different from placebo for VAS and bloating at doses 50 mg and higher | borderline effect | Two | do not significantly reduce any score in a predictable manner |
